From ChEMBL document CHEMBL1201862, “PubChem BioAssay data set” (2004) come the findings set out here.

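In this assay, cells in 96-well plates receive the compound at five concentrations for 48 hours. Endpoints are linearly interpolated between the surrounding concentrations. GI50 = concentration required for 50% inhibition of growth.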 Calls of active or inactive are those of the source. Rule as the data show it: active = GI50 up to about 1.1 µM and inactive = higher. Where a SMILES comes first, the peptide text is derived from it. The star is where a group is joined. CH2Cl = ClC* Some results are limits rather than exact numbers.

Some test systems named below: A498; A549; BT-549; CCRF-CEM; DU-145; EKVX; HT-29; K562; MCF7; MDA-MB-231; MOLT-4; NCI-H226; OVCAR-4; SF-295; SF-539; SK-MEL-5; SN12C; SR; SW-620; TK-10.
Common to all, as to test: NCI anticancer screen, dose series, 48 h

With `Cc1cc(S(=O)(=O)Nc2nnc3cc(C(F)(F)F)cc(C)n23)c(S)cc1Cl`, the GI50 was 18.9 µM (inactive) with A498; 21.3 µM (inactive) in the assay with A549; > 35.2 µM (inactive) in the assay on BT-549; > 100 µM (inactive) in the assay on CCRF-CEM; > 100 µM (inactive) with DU-145; > 100 µM (inactive) in the assay on EKVX. In addition, the GI50 with HT-29 is > 100 µM (inactive); with K562, > 100 µM (inactive); with MCF7 it was > 31.6 µM (inactive); in the assay with MDA-MB-231, > 83 µM (inactive); with MOLT-4 it was > 100 µM (inactive); in the assay with NCI-H226 it was > 54.6 µM (inactive). Besides, the GI50 in the assay on OVCAR-4 was > 100 µM (inactive); in the assay on SF-295, 55.1 µM (inactive); with SF-539 it was 34.4 µM (inactive); in the assay with SK-MEL-5, 64.4 µM (inactive); with SN12C, > 100 µM (inactive); with SR, > 100 µM (inactive). Also, the GI50 with SW-620 and with TK-10 was > 100 µM (inactive) throughout.
With `CCn1c(=O)c2cn[nH]c2n(C)c1=O`, the GI50 in the assay on A498, with A549, with BT-549, in the assay with CCRF-CEM, in the assay with DU-145 and in the assay with EKVX was > 100 µM (inactive) in each case. Moreover, the GI50 in the assay on HT-29, with K562, in the assay on MCF7, with MDA-MB-231, with MOLT-4 and with NCI-H226 was > 100 µM (inactive) throughout. Further, the GI50 in the assay on OVCAR-4, in the assay on SF-295, in the assay with SF-539, in the assay on SK-MEL-5, with SN12C and with SR was > 100 µM (inactive) each time. Moreover, the GI50 in the assay on SW-620 and in the assay with TK-10 was > 100 µM (inactive) in each case.
For the compound `COC(=O)CN1SC2(SC13C(C)(C)C(=O)C3(C)C)C(C)(C)C(=O)C2(C)C`, the GI50 with A498 was 30 µM (inactive); with A549, 51.2 µM (inactive); in the assay on BT-549, 27.8 µM (inactive); in the assay with CCRF-CEM, 11.1 µM (inactive); in the assay with DU-145, 31.5 µM (inactive); with EKVX, 63.4 µM (inactive). For the same compound, the GI50 with HT-29 was > 100 µM (inactive); in the assay on K562 it was 52.6 µM (inactive); in the assay on MCF7 it was 54.2 µM (inactive); in the assay on MDA-MB-231 it was 77.3 µM (inactive); in the assay on MOLT-4, 37 µM (inactive); with NCI-H226 it was 22.1 µM (inactive). In addition, the GI50 in the assay with OVCAR-4 is > 100 µM (inactive); in the assay with SF-295 it was 48.3 µM (inactive); in the assay on SF-539, > 100 µM (inactive); in the assay with SK-MEL-5 it was 35.2 µM (inactive); with SN12C, 48.3 µM (inactive); in the assay with SR, 81.8 µM (inactive). Besides, the GI50 in the assay on SW-620 is 68.7 µM (inactive); in the assay on TK-10, > 100 µM (inactive).
For `Nc1c(-c2ccc(Cl)c(Cl)c2)c2ccc([N+](=O)[O-])cc2c(=O)n1-c1nc2ccccc2s1`, the GI50 was 0.566 µM (active) with A498; 0.407 µM (active) in the assay on A549; 0.762 µM (active) with BT-549; 0.223 µM (active) in the assay on CCRF-CEM; 0.867 µM (active) with DU-145; 0.446 µM (active) in the assay with EKVX. Besides, the GI50 in the assay on HT-29 is 0.824 µM (active); with K562, 0.367 µM (active); in the assay with MCF7 it was 0.401 µM (active); in the assay with MDA-MB-231, 0.614 µM (active); with MOLT-4 it was 1.12 µM (active); in the assay with NCI-H226, 0.586 µM (active). For the same compound, the GI50 is 1.19 µM (inactive) with OVCAR-4; 0.551 µM (active) in the assay on SF-295; 2.65 µM (inactive) with SF-539; 0.328 µM (active) in the assay with SK-MEL-5; 0.335 µM (active) in the assay on SN12C; 0.417 µM (active) with SR. The values for the GI50 with SW-620 and in the assay with TK-10 were 0.574 µM (active) and 0.594 µM (active), respectively.
On to `COc1cc(C2c3cc4c(cc3OC(NN)C2C)OCO4)cc(OC)c1OC` (stereo not given), for which the GI50 in the assay with A498 was 0.257 µM (active); in the assay with A549, 1.58 µM (inactive); with BT-549, 9.12 µM (inactive); with CCRF-CEM, 0.405 µM (active); with DU-145, 1.94 µM (inactive); with EKVX, 10.2 µM (inactive). Moreover, the GI50 is 0.36 µM (active) in the assay on HT-29; 0.333 µM (active) with K562; 0.443 µM (active) in the assay on MCF7; 4.09 µM (inactive) with MDA-MB-231; 0.406 µM (active) in the assay with MOLT-4; 0.979 µM (active) with NCI-H226. Besides, the GI50 with OVCAR-4 is 23.6 µM (inactive); in the assay on SF-295, 0.406 µM (active); with SF-539, 0.247 µM (active); with SK-MEL-5 it was 0.478 µM (active); in the assay with SN12C, 0.757 µM (active); in the assay on SR, 0.287 µM (active). Further, the GI50 is 0.447 µM (active) with SW-620 and 28.3 µM (inactive) in the assay with TK-10.
Turning to `COc1ccc(C2=NNC(=O)c3ccccc3N2c2nc(-c3cccs3)nc3ccc(Br)cc23)cc1`, the GI50 with A498 was > 100 µM (inactive); with A549, 60.7 µM (inactive); with BT-549, 37.5 µM (inactive); with CCRF-CEM, 5.25 µM (inactive); in the assay on DU-145, 39.9 µM (inactive); with EKVX, 24.6 µM (inactive). Also, the GI50 was > 100 µM (inactive) in the assay on HT-29; 99.5 µM (inactive) with K562; 68.1 µM (inactive) in the assay on MCF7; 43.2 µM (inactive) in the assay with MDA-MB-231; 65.8 µM (inactive) in the assay on MOLT-4; 19.8 µM (inactive) with NCI-H226. The GI50 in the assay with OVCAR-4 is 39.8 µM (inactive); with SF-295, 20.6 µM (inactive); in the assay on SF-539, 16.7 µM (inactive); in the assay on SK-MEL-5, > 100 µM (inactive); with SN12C it was 56 µM (inactive); in the assay with SR, 42 µM (inactive). For the same compound, the GI50 was 91.4 µM (inactive) in the assay with SW-620 and 28.2 µM (inactive) in the assay on TK-10.
On to `CC(=O)NC(CC(C)C)C(=O)NC(Cc1ccccc1)C(=O)CCl` (stereo not drawn) (Ac-Leu-Phe-CH2Cl; configuration not given here), for which the GI50 in the assay on A498 was 18.8 µM (inactive); in the assay with A549, 20.7 µM (inactive); in the assay on BT-549, 14.9 µM (inactive); with CCRF-CEM it was 1.32 µM (inactive); in the assay on DU-145 it was 12.1 µM (inactive); in the assay on EKVX, 21.1 µM (inactive). In addition, the GI50 in the assay with HT-29 is 8.38 µM (inactive); with K562, 1.63 µM (inactive); in the assay with MCF7 it was 5.04 µM (inactive); in the assay with MDA-MB-231, 12.1 µM (inactive); with MOLT-4 it was 1.84 µM (inactive); in the assay on NCI-H226, 21.6 µM (inactive). The GI50 in the assay with OVCAR-4 was 18.3 µM (inactive); in the assay on SF-295, 18.8 µM (inactive); in the assay with SF-539, 18.1 µM (inactive); in the assay with SK-MEL-5, 8.02 µM (inactive); with SN12C it was 13.4 µM (inactive); with SR it was 2.55 µM (inactive). In addition, the GI50 with SW-620 was 2.67 µM (inactive); with TK-10, 10.4 µM (inactive).
